Measured values from the supplement of paper PMC10307832.

How the values were obtained:
Assay in all cases: relative viability (nuclei count vs DMSO), 5 days (fraction); higher = more cells survive
Tipifarnib + Bortezomib = compound: Cn1cncc1[C@@](N)(c1ccc(Cl)cc1)c1ccc2c(c1)c(-c1cccc(Cl)c1)cc(=O)n2C [Tipifarnib] + CC(C)C[C@H](NC(=O)[C@H](Cc1ccccc1)NC(=O)c1cnccn1)B(O)O [Bortezomib] (partner 0.002 µM)
How it was run: (§1)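 Relative viability equals treated-well nuclei counts divided by vehicle-well nuclei counts. Counts came from 4× images of lung cancer cell lines grown in 1536-well plates for 5 days after pin-tool dosing on the day after seeding. Dosing used one drug alone or a fixed anchor-drug dose plus five library-drug doses (not always all listed) in √10 steps, and values are medians of duplicate plates.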

Tipifarnib + Pemetrexed = compound: Cn1cncc1[C@@](N)(c1ccc(Cl)cc1)c1ccc2c(c1)c(-c1cccc(Cl)c1)cc(=O)n2C [Tipifarnib] + Nc1nc2[nH]cc(CCc3ccc(C(=O)N[C@@H](CCC(=O)O)C(=O)O)cc3)c2c(=O)[nH]1 [Pemetrexed] (partner 0.2 µM)
How it was run: as §1

Tipifarnib + Alpelisib = compound: Cn1cncc1[C@@](N)(c1ccc(Cl)cc1)c1ccc2c(c1)c(-c1cccc(Cl)c1)cc(=O)n2C [Tipifarnib] + Cc1nc(NC(=O)N2CCC[C@H]2C(N)=O)sc1-c1ccnc(C(C)(C)C(F)(F)F)c1 [Alpelisib] (partner 2 µM)
How it was run: as §1

Tipifarnib + Olaparib = compound: Cn1cncc1[C@@](N)(c1ccc(Cl)cc1)c1ccc2c(c1)c(-c1cccc(Cl)c1)cc(=O)n2C [Tipifarnib] + O=C(c1cc(Cc2n[nH]c(=O)c3ccccc23)ccc1F)N1CCN(C(=O)C2CC2)CC1 [Olaparib] (partner 8 µM)
How it was run: as §1

Row | Cell Line | relative viability (Tipifarnib + Bortezomib; first compound 0.01 µM) | relative viability (Tipifarnib + Bortezomib; first compound 0.03162 µM) | relative viability (Tipifarnib + Bortezomib; first compound 0.1 µM) | relative viability (Tipifarnib + Bortezomib; first compound 0.3162 µM) | relative viability (Tipifarnib + Bortezomib; first compound 1 µM) | relative viability (Tipifarnib + Pemetrexed; first compound 0.01 µM) | relative viability (Tipifarnib + Pemetrexed; first compound 0.03162 µM) | relative viability (Tipifarnib + Pemetrexed; first compound 0.1 µM) | relative viability (Tipifarnib + Pemetrexed; first compound 0.3162 µM) | relative viability (Tipifarnib + Pemetrexed; first compound 1 µM) | relative viability (Tipifarnib + Alpelisib; first compound 0.01 µM) | relative viability (Tipifarnib + Alpelisib; first compound 0.03162 µM) | relative viability (Tipifarnib + Alpelisib; first compound 0.1 µM) | relative viability (Tipifarnib + Alpelisib; first compound 0.3162 µM) | relative viability (Tipifarnib + Alpelisib; first compound 1 µM) | relative viability (Tipifarnib + Olaparib; first compound 0.01 µM) | relative viability (Tipifarnib + Olaparib; first compound 0.03162 µM) | relative viability (Tipifarnib + Olaparib; first compound 0.1 µM) | relative viability (Tipifarnib + Olaparib; first compound 0.3162 µM) | relative viability (Tipifarnib + Olaparib; first compound 1 µM)
1 | 201T | 1.12 | 1.14 | 1.06 | 1.05 | 0.788 | 0.363 | 0.338 | 0.371 | 0.317 | 0.346 | 1.01 | 1.04 | 1.04 | 0.98 | 0.977 | 0.851 | 0.86 | 0.83 | 0.733 | 0.793
2 | A-427 | 0.987 | 0.941 | 0.964 | 0.856 | 0.634 | 0.998 | 1.06 | 0.82 | 0.979 | 0.739 | 1.21 | 1.1 | 1.06 | 1.02 | 0.952 | 0.834 | 0.696 | 0.697 | 0.694 | 0.727
3 | BEN | 0.81 | 0.81 | 0.628 | 0.652 | 0.604 | 0.802 | 0.81 | 0.776 | 0.737 | 0.598 | 1.14 | 0.915 | 1.06 | 0.811 | 0.769 | 1.26 | 1.11 | 0.954 | 0.96 | 0.954
4 | CAL-12T | 0.791 | 0.75 | 0.714 | 0.719 | 0.318 | 1.2 | 1.09 | 0.741 | 0.472 | 0.62 | 1.33 | 0.851 | 0.555 | 0.417 | 0.693 | 0.717 | 0.587 | 0.527 | 0.455 | 0.465
5 | COR-L23 | 0.914 | 0.647 | 0.708 | 0.501 | 0.486 | 0.215 | 0.205 | 0.195 | 0.206 | 0.188 | 0.808 | 0.525 | 0.431 | 0.373 | 0.338 | 0.403 | 0.289 | 0.335 | 0.255 | 0.258
6 | COR-L 105 | 0.869 | 0.591 | 0.706 | 0.444 | 0.403 | 1.16 | 1.11 | 0.814 | 0.784 | 0.793 | 1.12 | 0.891 | 0.731 | 0.46 | 0.649 | 0.691 | 0.725 | 0.59 | 0.546 | 0.584
7 | EKVX | 1.13 | 1.01 | 0.903 | 0.699 | 0.607 | 0.433 | 0.396 | 0.39 | 0.411 | 0.289 | 0.895 | 0.883 | 0.83 | 0.595 | 0.652 | 0.881 | 0.829 | 0.682 | 0.586 | 0.521
8 | EMC-BAC-2 | 1.03 | 1 | 0.937 | 0.924 | 0.749 | 0.412 | 0.434 | 0.45 | 0.462 | 0.469 | 0.741 | 0.665 | 0.684 | 0.651 | 0.566 | 0.502 | 0.441 | 0.482 | 0.427 | 0.429
9 | EPLC-272H | 0.987 | 0.195 | 0.634 | 0.577 | 0.311 | 0.248 | 0.364 | 0.358 | 0.35 | 0.252 | 1.06 | 0.823 | 0.951 | 0.613 | 0.46 | 0.86 | 0.481 | 0.578 | 0.35 | 0.222
10 | H3255 | 0.622 | 0.647 | 0.554 | 0.561 | 0.344 | 0.674 | 0.543 | 0.562 | 0.541 | 0.499 | 0.759 | 0.734 | 0.627 | 0.482 | 0.497 | 0.606 | 0.509 | 0.457 | 0.397 | 0.402
11 | HARA | 1.16 | 0.938 | 1.26 | 1.12 | 0.55 | 0.23 | 0.32 | 0.293 | 0.297 | 0.249 | 0.924 | 0.792 | 0.781 | 0.662 | 0.653 | 0.842 | 0.865 | 0.762 | 0.996 | 0.76
12 | HCC-15 | 0.921 | 0.746 | 0.868 | 0.613 | 0.196 | 0.227 | 0.254 | 0.226 | 0.222 | 0.232 | 0.827 | 0.646 | 0.584 | 0.451 | 0.367 | 0.758 | 0.75 | 0.793 | 0.631 | 0.56
13 | HCC-44 | 0.87 | 0.684 | 0.78 | 0.609 | 0.461 | 0.619 | 0.615 | 0.625 | 0.589 | 0.604 | 0.742 | 0.747 | 0.62 | 0.615 | 0.58 | 0.973 | 0.925 | 0.993 | 0.957 | 0.942
14 | HCC-78 | 0.606 | 0.45 | 0.46 | 0.469 | 0.462 | 0.934 | 0.941 | 0.91 | 0.906 | 0.933 | 0.41 | 0.314 | 0.317 | 0.271 | 0.292 | 0.93 | 1.01 | 0.863 | 0.758 | 0.636
15 | HCC-366 | 1.09 | 0.887 | 0.483 | 0.315 | 0.07 | 0.145 | 0.143 | 0.167 | 0.127 | 0.0507 | 0.559 | 0.47 | 0.272 | 0.159 | 0.0543 | 0.302 | 0.327 | 0.164 | 0.199 | 0.106
